Measurements from PubChem BioAssay (NCI).
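Cultured in 96-well plates, cells were exposed to test compound for 48 hours across five concentrations. GI50 = concentration required for 50% inhibition of growth. At the TGI there is no net growth.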

Assays:
Test in all cases: NCI anticancer screen, dose series, 48 h
[1] = system: ACHN renal
[2] = system: SK-OV-3 ovarian
[3] = system: HCT-15 colon
[4] = system: A549 NSCLC
[5] = system: SF-268 CNS
[6] = system: HOP-92 NSCLC
[7] = system: UACC-257 melanoma
[8] = system: OVCAR-8 ovarian
[9] = system: M14 melanoma
[10] = system: NCI-H460 lung
[11] = system: DLD-1 colon
[12] = system: SK-MEL-5 melanoma
[13] = system: SNB-75 CNS
[14] = system: NCI-H226 lung
[15] = system: RXF 393 renal
[16] = system: SW-620 colon
[17] = system: OVCAR-5 ovarian
[18] = system: A498 renal
[19] = system: RPMI-8226 leukemia
[20] = system: HL-60(TB) leukemia
[21] = system: K-562 leukemia
[22] = system: SF-295 CNS
[23] = system: 786-0 renal
[24] = system: KM20L2 colon
[25] = system: CAKI-1 renal
[26] = system: SK-MEL-2 melanoma
[27] = system: HOP-62 NSCLC
[28] = system: KM12 colon
[29] = system: SK-MEL-28 melanoma
[30] = system: IGROV1 ovarian
[31] = system: MALME-3M melanoma
[32] = system: OVCAR-4 ovarian
[33] = system: OVCAR-3 ovarian
[34] = system: SN12C renal
[35] = system: HT29 colon
[36] = system: UO-31 renal
[37] = system: UACC-62 melanoma
[38] = system: M19-MEL melanoma
[39] = system: HCT-116 colon
[40] = system: COLO 205 colon
[41] = system: LXFL 529 NSCLC
[42] = system: CCRF-CEM leukemia
[43] = system: NCI-H522 lung
[44] = system: SF-539 CNS
[45] = system: HCC-2998 colon
[46] = system: SNB-19 CNS
[47] = system: LOX IMVI melanoma
[48] = system: TK-10 renal
[49] = system: HOP-18 NSCLC
[50] = system: U251 CNS
[51] = system: MOLT-4 leukemia

For `CC(=O)[CH-]C(=O)c1ccccc1.CC(=O)[CH-]C(=O)c1ccccc1.[O-]c1ccc(O)cc1.[O-]c1ccc(O)cc1.[Ti+4]`, the GI50 [1] was 14.7 µM, the TGI [1] was 28.1 µM and the GI50 [2] was 24.4 µM. For the same compound, the TGI [2] was 76.8 µM, the GI50 [3] was 15.7 µM and the TGI [3] was 37.6 µM. For the same compound, the GI50 [4] was 23.5 µM, the TGI [4] was over 100 µM and the GI50 [5] was 14 µM. The TGI [5] was 33.9 µM, the GI50 [6] was 14.1 µM and the TGI [6] was 28.9 µM. For the same compound, the GI50 [7] was 21.5 µM, the TGI [7] was 70.7 µM and the GI50 [8] was 13.5 µM. The TGI [8] was 31.5 µM, the GI50 [9] was 15.6 µM and the TGI [9] was 30.8 µM. It also gave a GI50 [10] of 14.2 µM, a TGI [10] of 44.6 µM and a GI50 [11] of 16.6 µM. For the same compound, the TGI [11] was 37.6 µM, the GI50 [12] was 16.2 µM and the TGI [12] was 30.3 µM. It also gave a GI50 [13] of 14.3 µM, a TGI [13] of 28.1 µM and a GI50 [14] of 15 µM. The TGI [14] was 34.6 µM, the GI50 [15] was 6.64 µM and the TGI [15] was 20.5 µM. For the same compound, the GI50 [16] was 17 µM, the TGI [16] was 31.6 µM and the GI50 [17] was 35.1 µM. For the same compound, the TGI [17] was 91.4 µM, the GI50 [18] was 18.4 µM and the TGI [18] was 37.3 µM. For the same compound, the GI50 [19] was 5.63 µM, the TGI [19] was over 100 µM and the GI50 [20] was 3.71 µM. For the same compound, the TGI [20] was 30.6 µM, the GI50 [21] was 15.4 µM and the TGI [21] was 76 µM. It also gave a GI50 [22] of 16.5 µM, a TGI [22] of 34.3 µM and a GI50 [23] of 13.2 µM. It also gave a TGI [23] of 26 µM, a GI50 [24] of 24.5 µM and a TGI [24] of 66.9 µM. It also gave a GI50 [25] of 17 µM, a TGI [25] of 34.1 µM and a GI50 [26] of 14.6 µM. The TGI [26] was 28.2 µM, the GI50 [27] was 18.8 µM and the TGI [27] was 41.5 µM. The GI50 [28] was 15.3 µM, the TGI [28] was 33 µM and the GI50 [29] was 18.6 µM. For the same compound, the TGI [29] was 35.7 µM, the GI50 [30] was 23.7 µM and the TGI [30] was 63 µM. For the same compound, the GI50 [31] was 18.1 µM, the TGI [31] was 33.5 µM and the GI50 [32] was 18.2 µM. It also gave a TGI [32] of 32.3 µM, a GI50 [33] of 13.9 µM and a TGI [33] of 27.2 µM. The GI50 [34] was 14.3 µM, the TGI [34] was 36.4 µM and the GI50 [35] was 21.5 µM. For the same compound, the TGI [35] was 59.7 µM, the GI50 [36] was 23.7 µM and the TGI [36] was 49.5 µM. The GI50 [37] was 16.2 µM, the TGI [37] was 31.3 µM and the GI50 [38] was 14.8 µM. It also gave a TGI [38] of 29.7 µM, a GI50 [39] of 15.1 µM and a TGI [39] of 28.3 µM. The GI50 [40] was 18.2 µM, the TGI [40] was 32.6 µM and the GI50 [41] was 13 µM. For the same compound, the TGI [41] was 25.7 µM, the GI50 [42] was 1.91 µM and the TGI [42] was 7.49 µM. It also gave a GI50 [43] of 1.97 µM, a TGI [43] of 4.37 µM and a GI50 [44] of 11.7 µM. It also gave a TGI [44] of 24.1 µM, a GI50 [45] of 16.1 µM and a TGI [45] of 33.6 µM. It also gave a GI50 [46] of 18.9 µM, a TGI [46] of 40 µM and a GI50 [47] of 14.3 µM. For the same compound, the TGI [47] was 27.3 µM, the GI50 [48] was 27.7 µM and the TGI [48] was 59.2 µM. It also gave a GI50 [49] of 27.1 µM, a TGI [49] of 72.2 µM and a GI50 [50] of 11.1 µM. It also gave a TGI [50] of 24 µM, a GI50 [51] of 4.18 µM and a TGI [51] of over 100 µM.
